In brackets after ≈: the same amount, converted by molar mass.
Assays:
A. niger ATCC 6275 = test: Suspension test for fungicidal activity (modified EN 1275), residual cell count; format: cell-based, Aspergillus niger
Method: The fungicidal activity of the compounds of the present invention is measured in a suspension test according to trivial modifications of the European Standard method EN 1275. The pyrano pyranone derivatives are dissolved in ethanol or DMSO resulting in 1% stock solutions of the compounds. The cell density of Candida albicans ATCC 10231 used as inoculum for the suspension test was 2.4×10^8 cfu/ml and of A. niger ATCC 6275 3.8×10^8 cfu/ml. Aliquots of 1 ml were taken of the A. niger containing test mixtures after set contact times for determination of the residual cell count. For inactivation of the antimicrobial compounds, the 1 ml aliquots were diluted in 1:10 steps in a solution of the following composition: [table]

[1] = system: Candida albicans ATCC 10231; test: as above; format: cell-based; details: C. albicans
Method: The fungicidal activity of the compounds of the present invention is measured in a suspension test according to trivial modifications of the European Standard method EN 1275. The pyrano pyranone derivatives are dissolved in ethanol or DMSO resulting in 1% stock solutions of the compounds. The cell density of Candida albicans ATCC 10231 used as inoculum for the suspension test was 2.4×10^8 cfu/ml and of A. niger ATCC 6275 3.8×10^8 cfu/ml. For the suspension tests, an appropriate concentration of the test compound is mixed with a Candida albicans suspension resulting in a final cell count of about 10^5 cfu/ml. These test mixtures are incubated at room temperature (22° C.+/−2° C.) and aliquots of 1 ml test mixture containing Candida albicans were taken after set contact times for determination of the residual cell count. For inactivation of the antimicrobial compounds, the 1 ml aliquots are diluted in 1:10 steps in a solution with 10% Tween, 3% lecithin, 0.1% histidine and 0.5% sodium thiosulfate.

[2] = system: gram positive and gram negative bacteria; test: Suspension test for bactericidal activity (modified EN 1040), residual cell count; format: cell-based
Method: The bactericidal activity of the compounds of the present invention is measured in a suspension test according to trivial modifications of the European Standard method EN 1040. Substances listed in Table 1 are tested against gram positive and gram negative bacteria, yeasts and moulds. A selection of the results is shown in the following. The pyrano pyranone derivatives are dissolved in ethanol or DMSO resulting in 1% stock solutions of the compounds. The cell densities of the bacterial suspensions used as inoculums for the suspension test are as follows (cfu=colony forming units): [table] For the suspension tests, an appropriate concentration of the test compound is mixed with a bacterial suspension resulting in a final cell count in the mixture of about 10^5 cfu/ml. These test mixtures are incubated at room temperature (22° C.+/−2° C.) and aliquots of 1 ml test mixture containing the test bacteria were taken after set contact times for determination of the residual cell count of test bacteria. For inactivation of the antimicrobial compounds, the 1 ml aliquots are diluted in 1:10 steps in a solution with 10% Tween, 3% lecithin, 0.1% histidine and 0.5% sodium thiosulfate.

[3] = system: Malassezia furfur DSM 6171, CIP 1636-86; test: Agar incorporation test, minimum inhibitory concentration (MIC); format: cell-based; details: M. fufur
Method: For determination of the microbistatic activity, the Minimum Inhibitory Concentrations (MIC) of the test compounds is determined.
The pyrano pyranone derivatives are also tested in an agar incorporation test in order to determine their minimum inhibitory concentrations (MIC) against various tests organisms. A selection of the results is shown in the following.
For this compound, a 1% stock solutions i9s prepared in ethanol.
A dilution series of the test compound in 15 ml still liquid agar media are prepared with 400 ppm, 200 ppm, 100 ppm, 50 ppm, 25 ppm, 12.5 ppm, 6.25 ppm, 3.125 ppm and 1.56 pmm of active.
The media used for the agar plates are Müller-Hinton (Merck) for the determination of the MIC against bacteria and C. albicans and Sabouraud Agar (Merck) for the determination of the MIC against A. niger. For the determination of the MIC against Malassezia furfur DSM 6171, CIP 1636-86 Medium 472 (DSMZ—Deutsche Sammlung von Mikroorganismen and Zellkulturen GmbH) was used.
After solidification of the agar, all agar plates containing the test compounds were stored over night in the laboratory (at about 22° C.) for drying. […]
10 μl of these cell dilutions are then dotted onto the surface of the agar media. […] (for Aspergillus niger), 4 days at 30° C. and then the highest dilution of the test compound at which no more growth was observed (corresponds to the MIC) is determined. […]

[4] = P. aeruginosa, contact time 24 h

| Compound | log reduction after set contact time (A. niger ATCC 6275; contact time 24 h) | residual cell count (cfu/ml) after set contact time (A. niger ATCC 6275; contact time 24 h) | log reduction after set contact time ([1]; contact time 24 h) | residual cell count (cfu/ml) after set contact time ([1]; contact time 24 h) | log reduction after set contact time ([2]; E. coli, contact time 24 h) | residual cell count (cfu/ml) after set contact time ([2]; E. coli, contact time 24 h) | log reduction after set contact time [2, 4] | residual cell count (cfu/ml) after set contact time [2, 4] | log reduction after set contact time ([2]; S. aureus, contact time 24 h) | residual cell count (cfu/ml) after set contact time ([2]; S. aureus, contact time 24 h) | log reduction after set contact time (A. niger ATCC 6275; contact time 7 d) | residual cell count (cfu/ml) after set contact time (A. niger ATCC 6275; contact time 7 d) | log reduction after set contact time ([1]; contact time 7 d) | residual cell count (cfu/ml) after set contact time ([1]; contact time 7 d) | log reduction after set contact time ([2]; S. aureus, contact time 7 d) | residual cell count (cfu/ml) after set contact time ([2]; S. aureus, contact time 7 d) | MIC [3] |
| --- | --- | --- | --- | --- | --- | --- | --- | --- | --- | --- | --- | --- | --- | --- | --- | --- | --- |
| CC1=Cc2c(cc(C)oc2=O)OC1C (stereo not shown) [P-1] | 2.2 | 1.2 × 10^3 cfu/ml | >3 | <100 cfu/ml | >3 | <100 cfu/ml | >3 | <100 cfu/ml | >3 | <100 cfu/ml | – | – | – | – | – | – | – |
| CC(C)=CCCC1(C)C=Cc2c(cc(C)oc2=O)O1 (stereo not shown) [P-3] | – | – | >3 | <100 cfu/ml | >3 | <100 cfu/ml | >3 | <100 cfu/ml | >3 | <100 cfu/ml | 2.2 | 1.2 × 10^3 cfu/ml | – | – | – | – | – |
| Cc1cc2c(c(=O)o1)C=CC(C)(C)O2 [P-4] | >3 | <10 cfu/ml | >3 | <100 cfu/ml | >3 | <100 cfu/ml | >3 | <100 cfu/ml | >3 | <100 cfu/ml | – | – | – | – | – | – | – |
| CC1=Cc2c(cc(C)oc2=O)OC1c1ccco1 (stereo not shown) [P-5] | – | – | – | – | >3 | 4.0 × 10^2 cfu/ml | >3 | <100 cfu/ml | – | – | – | – | >3 | <100 cfu/ml | >3 | <100 cfu/ml | 50 µg/mL (≈ 205 µM) |
| CCCC1C=Cc2c(cc(C)oc2=O)O1 (stereo not shown) [P-6] | >3 | <10 cfu/ml | >3 | <100 cfu/ml | >3 | <100 cfu/ml | >3 | <100 cfu/ml | >3 | <100 cfu/ml | – | – | – | – | – | – | – |

— patent publication US20110224170A1, “Pyranopyranone derivatives as antimicrobial agents” (BASF SE, priority 2010, published 2011)
